According to article PMC11357992, “Non-invasive mapping of systemic neutrophil dynamics upon cardiovascular injury” (Nature Cardiovascular Research, 2023):
Values joined by “and” are separate entries in the source; they are usually repeats but may differ in a detail not shown here. Identical values can stand only once. Where no end group is shown, it is not given here. carboxyfluorescein = N-terminal fluorescence label (CF)

How the values were obtained:
human neutrophils = test: ROS release of human neutrophils; type: cell-based; conditions: for ROS release of human neutrophils, raw data (panel C): single samples #1-#3
Experimental: A total of 5 × 10^6 human neutrophils were incubated in 10 ml DMEM with or without 1 µg ml^−1 peptide or 50 µl ml^−1 emulsion. At distinct time points, cells were pelleted, and 1 ml of the supernatant was immediately frozen at −80 °C. Subsequently, the amount of ROS was determined by chemiluminescence analysis. […] After centrifugation, 80 µl supernatant was used to determine ROS by UPLC measurement (Waters Acquity Bio H-Class with 2475 FLD Detector). To this end, gradients A and B (0.1% trifluoroacetic acid in 1 l water and acetonitrile, respectively) at a flow rate of 0.26 ml min^−1 at 17 °C were used. Dihydroethidium was excited and detected at 480 nm and 580 nm, respectively.

[1] = system: human lymphocytes, monocytes or neutrophils; test: Uptake of hNPPFCs/ConPFCs by human blood immune cells, flow cytometry; type: cell-based; conditions: for uptake by lymphocytes, raw data (flow cytometry): human lymphocytes; for uptake by lymphocytes, raw data (flow cytometry) / uptake by monocytes, raw data (flow cytometry): single samples #1-#4; for uptake by monocytes, raw data (flow cytometry): human monocytes
Experimental: Blood was collected from the vena brachialis, and erythrocytes were lysed as described above. After 10 min of incubation, samples were centrifuged at 350g for 10 min at 20 °C. For isolation of a purified neutrophil fraction, density gradient centrifugation was performed. Five milliliters of Ficoll 1.077 (Sigma-Aldrich) was layered on 5 ml Ficoll 1.119 (Sigma-Aldrich), and 20 ml of whole blood diluted 1:2 with PBS was carefully layered on the Ficoll 1.077. Samples were centrifuged at 350g for 20 min with low acceleration and brake. The neutrophil layer was isolated by careful aspiration and washed with PBS. Isolated cells were resuspended in MACS buffer.
Human immune cells were discriminated by staining for CD45 (BioLegend, clone HI30), CD11b (BD Biosciences, clone ICRF44), CD14 (BioLegend, clone M5E2) and CD16 (BD Biosciences, clone 3G8) (lymphocytes, CD45^+CD11b^−CD16^−; classical monocytes, CD45^+CD11b^+CD14^++CD16^−; non-classical monocytes, CD45^+CD11b^+CD14^+CD16^++; neutrophils, CD45^+CD11b^+CD16^+). Murine immune cells were discriminated by staining for CD45 (BD Biosciences, clone 30-F11), CD11b (BioLegend, clone M1/70), Ly6G (BD Biosciences, clone 1A8), Ly6C (BioLegend, clone HK1.4) and F4/80 (BioLegend, clone BM8) (lymphocytes, CD45^+CD11b^−Ly6G^−; classical monocytes, CD45^+CD11b^+Ly6G^−Ly6C^hi; non-classical monocytes, CD45^+CD11b^+Ly6G^−Ly6C^lo; neutrophils, CD45^+CD11b^+Ly6G^+; eosinophils, CD45^+CD11b^+Ly6G^+SSC^hiFSC^lo). Both human and murine cells were stained for 20 min at 4 °C, followed by washing with 200 µl MACS buffer.
If not mentioned otherwise, neutrophil-specific peptide or Con (both at 1 µg ml^−1) were incubated for 20 min at 4 °C, while ^NPPFCs or ^ConPFCs were incubated at a concentration of 10 µl ml^−1 for the indicated period of time, followed by two washing steps with 200 µl MACS buffer.
A total of 1 × 10^6 cells were incubated with 10 µl of the emulsion over a period of 80 min at 37 °C. At distinct time points, 50 µl of the samples were transferred into 2 ml of ice-cold MACS buffer and analyzed for rhodamine fluorescence by flow cytometry.
Extended Data Fig. 8 Physicochemical properties and cellular uptake of ^hNPPFCs. a, Cellular uptake of ^hNPPFCs by human monocyte subsets and neutrophils: Human immune cells isolated from the blood of healthy volunteers were incubated with ^hNPPFCs. Subsequently, cells were stained with CD11b, CD14 and CD16 to differentiate between neutrophils (red), classical monocytes (gray) and non-classical monocytes (blue) and the cells were analyzed by flow cytometry. The cellular uptake of ^hNPPFCs was determined under unstimulated conditions (top) and after treatment with 1 µg/ml LPS (bottom). b, Physicochemical properties of the generated nanotracers: Characterization of size, size distribution and ζ potential of ^MalPFCs and targeting PFCs (^hNPPFCs, ^ConPFCs) by dynamic light scattering (DLS). The rhodamine fluorescence signal of the PCS was determined by IVIS imaging and the ^19F content by ^19F MRI. c-e, Cryo transmission electron microscopy of the generated nanotracers: c, Cryo transmission electron microscopy (cryo-TEM) of ^hNPPFCs and ^ConPFCs. Graphs: The diameter of the PFCs was determined manually from three images categorized into 25 nm groups. […] Data are derived from three images for ^hNPPFCs and ^ConPFCs each. d, Box plot (box and whiskers; min to max) of the diameter of ^ConPFCs/^hNPPFCs calculated from cryo-TEM images. e, Relative amount of liposomes (%) in individual cryo-TEM images. The number of PFCs and liposomes was manually determined (n = 4/5 images). Red arrows in the cryo-TEM images indicate liposomes. Data are mean values ± SD of n = 5-6 (a), n = 3-6 (b), n = 3 (c), n = 3 (d) and n = 6 (e) independent experiments; *** = p < 0.001, verified by one-way ANOVA (a). Source data

hNPPFCs: PEGylated rhodamine-labeled perfluorocarbon nanoemulsion coupled with human neutrophil-specific peptide hNP (carboxyfluorescein-DLVTSKLQVGGGC; also: C-terminal Cys coupled via maleimide-PEG2000-DSPE to rhodamine-labelled perfluorocarbon nanoemulsion)
impact on human neutrophil ROS release (human neutrophils; 1 µg ml^−1 peptide or 50 µl ml^−1 emulsion): neither ^hNPPFCs nor the free peptide had any impact on human neutrophil ROS release | ROS release of human neutrophils, raw data (panel C) (human neutrophils; time point 1): 1725.82 and 1480.41 and 1396.67 | ROS release of human neutrophils, raw data (panel C) (human neutrophils; time point 3): 1373.8 and 1515.29 and 1254.87 | ROS release of human neutrophils, raw data (panel C) (human neutrophils; time point 6): 2382.05 and 1474.31 and 1302.37 | ROS release of human neutrophils, raw data (panel C) (human neutrophils; time point 24): 1643.61 and 1455.28 | uptake by neutrophils, Ctrl - hNPPFCs, raw data ([1]; Ctrl donors, time 0, single samples #1-#8): 68.6 and 64 and 91.8 and 102 and 91.2 and 87.9 and 78.2 and 76.6 | uptake by human monocytes and their subtypes, flow cytometry ([1]; also under LPS stimulation (1 µg/ml)): only minor uptake | uptake by lymphocytes, raw data (flow cytometry) ([1]; incubation 0 min): 14.8 and 22.7 and 17.1 and 13 | uptake by lymphocytes, raw data (flow cytometry) ([1]; incubation 40 min): 125 and 107 and 139 and 206 | uptake by lymphocytes, raw data (flow cytometry) ([1]; incubation 80 min): 149 and 177 and 157 and 227 | uptake by monocytes, raw data (flow cytometry) ([1]; incubation 0 min): 41.4 and 45.1 and 42.3 and 29.9 | uptake by monocytes, raw data (flow cytometry) ([1]; incubation 10 min): 285 and 252 and 274 and 459 | uptake by monocytes, raw data (flow cytometry) ([1]; incubation 20 min): 318 and 557 and 425 and 621 | uptake by monocytes, raw data (flow cytometry) ([1]; incubation 40 min): 616 and 798 and 629 and 741 | uptake by monocytes, raw data (flow cytometry) ([1]; incubation 80 min): 938 and 1088 and 771 and 1126 | uptake by neutrophils, raw data (flow cytometry) ([1]; human neutrophils, incubation 0 min, single samples #1-#9): 76.6 and 91.8 and 102 and 91.2 and 87.9 and 78.2 | binding to human lymphocytes, flow cytometry ([1]; immune cells from human blood): no binding to lymphocytes | binding to human neutrophils, flow cytometry ([1]; immune cells from human blood): avidly bound to neutrophils | human neutrophils labeled by hNPPFCs ([1]; of all human neutrophils in the authors' samples (CD177 not present on all)): 50–60%
